Measurements taken from US20210267872A1, “Delivery Of Cosmetic Agents, Compositions And Use Thereof” (ELC Management LLC, priority 2020, published 2021).

Columns and labels:
MatTek 300 skin = experiment: Skin penetration study (Franz Cell) using MatTek skin; assay type: in vitro ADME; conditions: for enhancement of penetration of AA2G over control: p value greater than 0.05
Description: In a 6-well plate, MatTek 300 skin (a skin modeling constructed by live cells, obtained from MatTek) was placed in well with 2.00 mL of incubation medium (also provide by MatTek). To the top of the skin, 400 ul of the sample was loaded. The skin was then incubated at 37° C. At 3 hours and 6 hours, the incubation medium was collected, and another 2.00 mL of medium was added into the well. The skin was then incubated until 24 hours. Finally, the medium was collected at 24 hours' time point. The collected mediums were filtered through a 0.45 um PTFE syringe filter into HPLC vials. The samples were then submitted to the UPLC study.
Waters ACQUITY H UPLC was used to analyze the collected samples from the penetration study (Franz Cell study).

Skin PAMPA study = assay type: in vitro ADME
Description: In vitro delivery of active ingredients in a formulation was evaluated using a skin PAMPA study. Active ingredients and pulverized thin fibers were added to the formulation and tested for permeation using PAMPA SC membrane for polar compounds. The following samples were prepared. Formulations are provided in Table 3 in percentages. • Formula 1 as shown in Table 3. • Formula 2: Formula 1 and 1% of microcrystalline cellulose (9 μm). • Formula 3: Formula 1 and the maximum amount of 1% dispersion (cellulose acetate fibers in water). • Formula 4: Formula 1 and 1% of microcrystalline cellulose (9 μm) and the maximum amount of 1% dispersion (cellulose acetate fibers in water).

SMILES	enhancement of penetration of AA2G over control (MatTek 300 skin; six hours, formula containing cellulose acetate chopped fibers vs control without fiber) [%]	enhancement of penetration of AA2G over control (MatTek 300 skin; three hours, formula containing cellulose acetate chopped fibers vs control without fiber) [%]	enhancement of penetration of AA2G over control (difference) (MatTek 300 skin; twenty-four hours, formula containing cellulose acetate chopped fibers vs control without fiber)	delivery/penetration of AA2G into the skin in the presence of cellulose acetate chopped fibers (MatTek 300 skin; vs formulation without fiber, initial 6 hours after loading)	permeated amount of AA2G, FIG. 2B (Skin PAMPA study; span over all formulas shown) [μg/cm2]	percentage % penetration of caffeine compared with AA2G (MatTek 300 skin)	penetration of caffeine in the presence of cellulose acetate chopped fibers (summary) (MatTek 300 skin; PAMPA)	enhancement of penetration of caffeine by addition of chopped fiber (MatTek 300 skin; human, 6 h) [%]	permeation of caffeine in the presence of chopped fibers compared to the control, FIG. 4B (Skin PAMPA study; composition comprising chopped fibers)	permeating amount of caffeine, FIG. 4A (Skin PAMPA study; six hours, cellulose acetate nanofiber)
O=C1O[C@H]([C@@H](O)CO)C(O)=C1O[C@H]1O[C@H](CO)[C@@H](O)[C@H](O)[C@H]1O [AA2G, ascorbic acid 2-glucoside]	30	33	less than 10%	enhanced	0 to 300					
Cn1c(=O)c2c(ncn2C)n(C)c1=O [caffeine]						greater than that of AA2G	slightly enhanced	< 10	doubling	slightly increased
